Results on 7 compounds are retold here after US5187165A, “Memory enhancing and analgesic 1,2,3a,8,8a-hexahydro-3a,8(and 1,3a,8)-di(and tri)methylpyrrolo[2,3-b]indoles” (priority 1988, dated 1993).

By LD50 is commonly meant the dose expected to kill half of the subjects tested. A lower LD50 goes with a more toxic substance.

For series [1], the system named is scopolamine-induced memory deficit. As to the kind of experiment: Dark Avoidance Assay (scopolamine induced memory deficit reversal). The class given is in vivo, mice. As to conditions: Mus musculus, sc, 24 h, read-out: % of Animals with Scopolamine Induced Memory Deficit Reversal. The method, then:
In this assay mice are tested for their ability to remember an unpleasant stimulus for a period of 24 hours. A mouse is placed in a chamber that contains a dark compartment; a strong incandescent light drives it to the dark compartment, where an electric shock is administered through metal plates on the floor. The animal is removed from the testing apparatus and tested again, 24 hours later, for the ability to remember the electric shock.
If scopolamine, an anticholinergic that is known to cause memory impairment, is administered before an animal's initial exposure to the test chamber, the animal re-enters the dark compartment shortly after being placed in the test chamber 24 hours later. This effect of scopolamine is blocked by an active test compound, resulting in a greater interval before re-entry into the dark compartment.
The results for an active compound are expressed as the percent of a group of animals in which the effect of scopolamine is blocked, as manifested by an increased interval between being placed in the test chamber and re-entering the dark compartment.

Series [2] deals with T1, acetylcholinesterase (Brain AChE) (Rattus norvegicus, UniProt P37136).
T1 construct: corpora striata dissected free, weighed and homogenized in 19 volumes; from tissue; host or cells: corpora striata of male Wistar rats, crude homogenate in phosphate buffer
T1 sequence (P37136 32-614): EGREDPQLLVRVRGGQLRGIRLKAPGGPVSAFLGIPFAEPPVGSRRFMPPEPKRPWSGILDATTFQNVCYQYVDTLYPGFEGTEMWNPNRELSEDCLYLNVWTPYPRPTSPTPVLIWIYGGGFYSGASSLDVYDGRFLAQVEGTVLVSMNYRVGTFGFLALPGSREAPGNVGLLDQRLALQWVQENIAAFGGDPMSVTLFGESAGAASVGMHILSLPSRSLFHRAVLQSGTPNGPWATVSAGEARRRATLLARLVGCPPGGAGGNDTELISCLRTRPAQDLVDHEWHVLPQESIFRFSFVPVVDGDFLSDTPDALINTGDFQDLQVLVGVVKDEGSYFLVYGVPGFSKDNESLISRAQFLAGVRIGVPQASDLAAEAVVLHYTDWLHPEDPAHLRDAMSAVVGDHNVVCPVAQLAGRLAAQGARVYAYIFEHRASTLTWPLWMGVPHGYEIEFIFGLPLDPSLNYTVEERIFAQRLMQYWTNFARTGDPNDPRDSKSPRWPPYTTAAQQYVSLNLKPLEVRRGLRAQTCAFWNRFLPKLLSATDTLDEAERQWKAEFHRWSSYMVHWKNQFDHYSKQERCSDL
The experiment in a line: In Vitro Inhibition of Acetylcholinesterase Activity in Rat Striatum. The class given is biochemical. An excerpt:
(§1) Cholinesterases are found throughout the body, both in the brain and in serum. However, only brain acetylcholinesterase (AChE) distribution is correlated with central cholinergic innervation. […] We have determined in vitro inhibition of acetylcholinesterase activity in rat striatum and in vitro inhibition of butrylcholinesterase activity in human serum according to the methods described below.
The method described below was used in this invention for assaying cholinesterase activity. This is a modification of the method of Ellman et al., Biochem. Pharmacol. 7, 98 (1961).
1. 0.05M Phosphate buffer, pH 7.2
(§2) (a) 9.9 mg 5,5-dithiobisnitrobenzoic acid (DTNB) (0.25 mM)
(b) 99 mg s-acetylthiocholine chloride (5 mM)
(§3) (c) q.s. to 100 ml with 0.05M phosphate buffer, pH 7.2 (reagent 1)
Male Wistar rats are decapitated, brains rapidly removed, corpora striata dissected free, weighed and homogenized in 19 volumes (approximately 7 mg protein/ml) of 0.05M phosphate buffer, pH 7.2 using a Potter-Elvehjem homogenizer. A 50 microliter aliquot of the homogenate is added to 50 microliter vehicle of various concentrations of the test drug and preincubated for 10 minutes at room temperature.
1. For routine IC50 determinations the Abbott Bichromatic Analyzer, ABA-100, is used to determine acetylcholinesterase activity.
Incubation temperature: 30° C.
Following the 10 minute preincubation of the tissue (enzyme) with the inhibitor, the samples are mixed with the substrate chromogen buffer by the ABA-100. Using the indicated instrument settings the ABA-100 automatically reads the color reaction and prints out the results in enzyme units after 15 minutes.
2. The enzyme activity can also be measured with Gilford 250 spectrophotometer. This method is used for more accurate kinetic measurments.
Reagents are added to the reference and sample side of a split curvette as follows.
The uninhibited activity of the enzyme (tissue homogenate) is first determined. Test drugs are made up in a suitable solvent and added in suitable dilutions to the buffer vehicle. The reaction rate is determined by the slope of the recorded absorbance change. The actual rate (moles/liter/min) can be calculated as described in the following formula
rate(moles/liter/min)=slope/(1.36×10^4).

Series [3] addresses T2, butyrylcholinesterase (Serum AChE) (Homo sapiens, UniProt P06276).
T2 construct: A vial of lyophilized human serum; purchased Biodynamics, Houston, Tex; (Precilip); host or cells: lyophilized human serum, reconstituted in water; enzyme not purified
The experiment in a line: In Vitro Inhibition of Butyrylcholinesterase Activity in Human Serum. The class given is biochemical.
From the text: as §1
This assay can be used in conjunction with the acetylcholinesterase assay to determine the enzyme selectivity of various chloinesterase inhibitors.
Butyrylcholinesterase (BChE), which is sometimes called pseudocholinesterase, preferentially hydrolyzes butyrylcholine. This enzyme is found in the highest amounts in serum, but its physiological role is not known.
as §2
(b) 113 mg s-butyrylthiochloine chloride (5 mM)
as §3
A vial of lyophilized human serum (Precilip, Biodynamics, Houston, Tex. is reconstituted in 3 ml of distilled water. A 10 microliter aliquot of this suspension is added to 90 microliter of the vehicle or various concentrations of the test drug and preincubated for 10 minutes at room temperature.
Substantially the same procedure is used as described above in Section C of the Procedure used for determining the inhibition of acetylcholinsterase activity.

Series [4] has as its system tetrabenazine-induced ptosis. The experiment in a line: Prevention of Tetrabenazine-Induced Ptosis In Mice (TBZ). As to conditions: 60 mg/kg. The class given is in vivo. The text has this:
Tetrabenazine (TBZ) induces behavioral depression with concomitant ptosis in mice similar to reserpine. Antidepressant compounds, both monoamineoxidase inhibitors and tricyclics, are known to prevent or antagonize these effects and the degree of antagonism correlates with clinical efficacy. The prevention of TBZ-induced ptosis in mice is used as a preliminary screen for possible antidepressant activity. The method used in this invention is as follows:
Male mice weighing 20 to 30 grams are used in test groups of five subjects. All compounds are dissolved or suspended with a suitable surfactant in distilled water and administered in volumes of 10 ml/kg of body weight. TBZ solution is made from the methanesulfonate salt and the concentration is adjusted to enable administration of 60 mg/kg of base by intraperitoneal (i.p.) injection.
The pretreatment time is measured from the time of dosing to observation. Therefore, when a […] pretreat is utilized, drug and TBZ are given simultaneously. A control group receives solvent and TBZ at intervals identical to drug group. For a primary screen, the drug is administered i.p. and a group size of five is utilized. Eight animals/group are used for a dose range.
Thirty minutes after TBZ, the subjects are placed in individual plastic containers (10.5×8×6 inches) in the presence of white noise and one minute after the transfer, they are scored for ptosis on the following scale: Eyes closed=4, eyes 3/4 closed=3, eyes 1/2 closed=2, eyes 1/4 closed=1, eyes open=0. The total score for each group of five in a primary screen will, therefore, be from 0 to 20 and these scores are used as indications of drug activity.
The vehicle control group score is used as a determinant of the validity of each test. If the control score is less than 17, the results are discarded and the test repeated. The calculation of percent inhibition of ptosis is: [formula]
Linear regression analysis is used to estimate ED50 values and 95% confidence intervals.

Series [5] has as its system norepinephrine uptake. The class given is biochemical. As to conditions: rat brain synaptosomes, 50 nM 3H-NE, 37° C., 5 min; read-out: Reuptake Inhibition of neurotransmitters, Norepinephrine.
In another series the test system is yohimbine toxicity. The experiment in a line: animal or person. The class given is in vivo, mice. As to conditions: mice, oral, 80 mg/kg. The method, then: The potentiation of yohimbine toxicity is considered an additional test for screening antidepressant drugs. The method used in this invention is as follows:
Male mice weighing 20 to 30 grams are used. They are housed under standard laboratory conditions with free access to food and water. Compounds are dissolved in distilled water and a suitable surfactant is added in case of poor solubility. Yohimbine hydrochloride is dissolved in distilled water as well. Both compound and yohimbine are administered in a volume of […].
Compounds and vehicle are administered orally 60 minutes prior to a sublethal dose (30 mg/kg s.c.) of yohimbine hydrochloride which alone causes death in about […] of mice (4 out of 400). Ten mice per group are then placed in plastic cages (26×10×16 cm) with food and water available ad libitum. Mortality rate is assessed 18 hours postdosing. ED50 is defined as dose of drug causing death in 5/10 mice and is calculated by probit analysis.

A short description of a further series: Acute toxicity (LD50). The class given is in vivo. The conditions noted are these: in vivo, ip, death within 24 hours. The method, then: LD50 is determined by the dose (mg/kg) at which 50% of the test animals die within 24 hours. In many cases this dose is an approximation.
Series [6] has as its target T2, butyrylcholinesterase (Serum AChE). The conditions noted are these: background statement; cited from earlier work.
Another series concerns butyrylcholinesterase. As to conditions: ex vivo; cited from earlier work.
The target of series [7] is T1, acetylcholinesterase (Brain AChE). As to conditions: background statement; brain vs serum AChE; cited from earlier work.
The subject of series [8] is norepinephrine uptake. As to conditions: background statement; cited from earlier work.

A value given as a limit tells only on which side of the number the result lay.

T2 sequence (P06276 29-602): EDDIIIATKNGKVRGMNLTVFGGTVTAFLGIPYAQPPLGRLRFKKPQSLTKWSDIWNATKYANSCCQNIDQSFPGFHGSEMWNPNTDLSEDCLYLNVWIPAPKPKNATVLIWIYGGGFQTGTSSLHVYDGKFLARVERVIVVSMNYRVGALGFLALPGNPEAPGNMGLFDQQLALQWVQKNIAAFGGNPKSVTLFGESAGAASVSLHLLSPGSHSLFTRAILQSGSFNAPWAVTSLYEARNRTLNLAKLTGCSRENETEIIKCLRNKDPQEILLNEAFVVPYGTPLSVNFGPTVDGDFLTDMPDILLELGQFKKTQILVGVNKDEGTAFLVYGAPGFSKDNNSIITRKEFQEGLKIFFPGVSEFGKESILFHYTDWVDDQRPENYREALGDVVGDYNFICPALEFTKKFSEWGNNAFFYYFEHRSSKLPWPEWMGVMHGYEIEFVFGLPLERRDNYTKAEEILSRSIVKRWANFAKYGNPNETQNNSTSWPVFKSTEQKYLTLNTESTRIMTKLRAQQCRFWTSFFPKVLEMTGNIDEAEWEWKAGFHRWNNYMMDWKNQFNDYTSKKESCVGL

For `CN1CC[C@@]2(C)c3cc(OC(=O)Nc4cccc(Cl)c4)ccc3N(C)[C@@H]12` [(3aS-cis)-1,2,3,3a,8,8a-Hexahydro-1,3a,8-trimethylpyrrolo[2,3-b]indol-5-ol,3-chlorophenyl carbamate ester], the responders at 5 mg/kg in series [1] was determined as 20%. Also, the IC50 was 0.6 µM in series [2], more than 1000 µM in [3] and 1.8 µM with norepinephrine uptake [5]. In addition, the “% Inhibition, TBZ” value in [4] worked out at 45%. The “% Inhibition, YTP” value in the series on yohimbine toxicity is recorded as 63%. This compound returned an LD50 at 24 h in the series “Acute toxicity (LD50)” of more than 80 mg/kg.
`CCN(CC)C(C)CN1c2ccccc2Sc2ccccc21` (centres unmarked) [Ethopropazine]: the “selectivity of inhibition of butyrylcholinesterase” value in series [6] is listed as “selective inhibitors of butyrylcholinesterase”.
For `CC(C)NP(=O)(NC(C)C)OP(=O)(NC(C)C)NC(C)C` [ISO-OMPA, tetraisopropyl pyrophosphoramide], the “selectivity of inhibition of butyrylcholinesterase” value in [6] is listed as “selective inhibitors of butyrylcholinesterase”. Further, the “cholinomimetic effects correlated with butyrylcholinesterase inhibition” value in the series with butyrylcholinesterase is listed as “not correlated with any significant acute chloinomimetic effects”.
Turning to `CNC(=O)Oc1ccc2c(c1)[C@]1(C)CCN(C)[C@@H]1N2C` [Physostigmine, (3aS-cis)-1,2,3,3a,8,8a-hexahydro-1,3a,8-trimethylpyrrolo[2,3-b]indol-5-ol, methyl carbamate ester, reference compound], in series [1] (mice, 0.31 mg/kg s.c.), the responders at 0.31 mg/kg was determined as 20%. For the same compound, the “specificity of AChE inhibition” value in series [7] was “an unspecific AChE inhibitor”. Besides, the IC50 in the series with norepinephrine uptake [5] was more than 20 µM. This compound returned an LD50 at 24 h in the series “Acute toxicity (LD50)” of approximately 3 mg/kg.
Regarding `COC(=O)[C@H]1[C@@H](OC(=O)c2ccccc2)C[C@@H]2CC[C@H]1N2C` [cocaine], the “inhibition of NE uptake” value in the series with norepinephrine uptake [8] is on record as “potently inhibited”.
Consider `C[C@@H]1O[C@@H](O[C@H]2C[C@@H](O)[C@]3(CO)[C@H]4[C@H](O)C[C@]5(C)[C@@H](C6=CC(=O)OC6)CC[C@]5(O)[C@@H]4CC[C@]3(O)C2)[C@H](O)[C@H](O)[C@H]1O` [ouabain], for which, in the series on norepinephrine uptake [8], the “inhibition of NE uptake” value is “inhibited”.
Consider `CC(COc1ccccc1)N(CCCl)Cc1ccccc1` (centres unmarked) [phenoxybenzamine], for which the “inhibition of NE uptake” value in the series with norepinephrine uptake [8] is reported as “inhibited”.
